Data published in article PMC9504587, “Cytotoxic Drimane-Type Sesquiterpenes from Co-Culture of the Marine-Derived Fungi Aspergillus carneus KMM 4638 and Beauveria felina (=Isaria felina) KMM 4639” (Marine Drugs, 2022).
In brackets after ≈: the same amount, converted by molar mass. Like-named read-outs stand apart in the source and are kept apart here.

Experiments:
[1] = test system: rat glioblastoma C6; test: MTT cytotoxicity assay, C6 cells; assay type: cell-based; settings: 24 h incubation, mean ± SEM
Protocol: (§1) PC-3, MCF-7, C6, and H9c2 cells were cultured in DMEM medium (Biolot, St. Petersburg, Russia) containing 10% fetal bovine serum (Biolot, St. Petersburg, Russia) and 1% penicillin/streptomycin (Biolot, St. Petersburg, Russia) at 37 °C in a humidified atmosphere with 5% (v/v) CO2. The Raji cells were cultured in RPMI-1640 medium (Biolot, St. Petersburg, Russia) containing 10% fetal bovine serum (Biolot, St. Petersburg, Russia) and 1% penicillin/streptomycin (Biolot, St. Petersburg, Russia) under the same conditions.
(§2) Initially, cells were incubated in culture flasks until subconfluent (~80%). For testing, the cells were seeded at concentrations of 5 × 10^3 cells/well (PC-3, MCF-7, Raji, and C6 cells) or 3 × 10^3 cells/well (H9c2 cells), and experiments were started after 24 h.
(§3) The in vitro cytotoxicity of individual substances was determined by the MTT method (3-(4,5-dimethylthiazol-2-yl)-2,5-diphenyltetrazolium bromide), according to the manufacturer’s instructions (Sigma-Aldrich, St. Louis, MO, USA).
(§4) Investigated compounds were dissolved in DMSO at a concentration of 10 mM.
(§5) The cells were treated with the investigated compounds for 24 h or 48 h, and MTT reagent was added to each well of the plate. The vehicle with DMSO at a concentration of 1% was used as a control. The absorbance of formed formazan was measured at λ = 570 nm using a Multiskan FC microplate photometer (Thermo Scientific, Waltham, MA, USA) and expressed in optical units (o.u.). The results are presented as % of viable cells relative to vehicle, and 50% inhibition concentration of cell viability (IC50) was calculated.

[2] = test system: gastric cancer MKN-45 cells; set-up: method as in doi:10.25135/rnp.294.2109.2194; settings: cited from earlier work
[3] = test system: human lymphoma Raji; test: MTT cytotoxicity assay, Raji cells; assay type: cell-based; settings: 24 h incubation, mean ± SEM
Protocol: as §1, §2, §3, §4, §5

[4] = test system: normal rat cardiomyocyte H9c2 cell line; test: MTT cytotoxicity assay, H9c2 cells; assay type: cell-based; settings: 24 h incubation, mean ± SEM
Protocol: as §1, §2, §3, §4, §5

[5] = test system: human hepatocarcinoma HepG2; set-up: method as in doi:10.25135/rnp.294.2109.2194; settings: cited from earlier work
[6] = test system: human prostate cancer PC-3; test: MTT cytotoxicity assay, PC-3 cells; assay type: cell-based; settings: 24 h incubation, mean ± SEM
Protocol: as §1, §2, §3, §4, §5

[7] = test system: human breast cancer MCF-7; test: MTT cytotoxicity assay, MCF-7 cells; assay type: cell-based
Protocol: as §1, §2, §3, §4, §5

[8] = test system: MCF-7 cells; test: Total caspase activity by flow cytometry (Muse multicaspase kit); assay type: cell-based, human; settings: 10 µM, 48 h; control 4.7%
Protocol: The influence of the compounds on the percentage of live MCF-7 cells (caspase−/7-AAD−), live MCF-7 cells with caspase activity (caspase+/7-AAD−), dead MCF-7 cells with caspase activity […] MCF-7 cells (caspase−/7-AAD+) was measured by a Muse® multicaspase kit (Luminex, Austin, TX, USA). The kit utilizes a VAD-peptide derivatized with a fluorescent group called fluorescent-labeled inhibitor of caspases (FLICA). The peptide binds to activated caspases, resulting in a fluorescent signal proportional to the number of active caspases in the cell. Fluorescent dye 7-AAD was used as a dead cell marker in this assay.
After incubation, culture media were collected, and cells were washed twice with cold PBS and incubated in trypsin-EDTA solution for 1 min. The cell suspension was washed twice by centrifugation at 250× g for 4 min with cold PBS and then used for caspase activity detection by a Muse® multicaspase kit (caspases 1, 3, 4, 5, 6, 7, 8, and 9) in accordance with manufacturer’s instructions (Luminex, Austin, TX, USA). Fluorescence was measured with a Muse® cell analyzer (Luminex, Austin, TX, USA), and data were processed by Muse 1.5 analysis software (Luminex, Austin, TX, USA).

[9] = test system: MCF-7 cells; test: Cell cycle analysis by flow cytometry (propidium iodide); assay type: cell-based, human; settings: 10 µM, 48 h
Protocol: After incubation, cells were trypsinized, harvested, washed with PBS, and fixed with ice-cold 70% ethanol in a dropwise manner prior to storage at −20 °C overnight. The cells were then washed with PBS, incubated with 200 μg/mL RNAse (PanReac, AppliChem, Darmstadt, Germany) and 20 μg/mL of propidium iodide (Sigma-Aldrich, St. Louis, MO, USA) for 30 min at 37 °C, and the DNA content was analyzed with a Muse® cell analyzer (Luminex, Austin, TX, USA). The data were processed by Muse 1.5 analysis software (Luminex, Austin, TX, USA). The proportion of cells in each phase of the cell cycle was expressed as a percentage.

[10] = test system: H9c2, C6, PC-3, Raji and MCF-7 cells; test: MTT cytotoxicity, summary statements over several cell lines; assay type: cell-based; settings: 24 h
Protocol: as §3, §4, §5

[11] = test system: MCF-7 cells; test: Apoptosis profile by flow cytometry (Muse annexin V and dead cell kit); assay type: cell-based, human; settings: 10 µM, 48 h
Protocol: After incubation, culture media were collected; then, cells were washed twice with cold PBS and incubated with trypsin-EDTA solution for 1 min. The cell suspension was washed twice by centrifugated at 250× g for 4 min with cold PBS and used for apoptosis detection by a Muse® annexin V and dead cell kit in accordance with manufacturer’s instructions (Luminex, Austin, TX, USA). Fluorescence was measured with a Muse® cell analyzer (Luminex, Austin, TX, USA), and data were processed by Muse 1.5 analysis software (Luminex, Austin, TX, USA). The proportion of apoptotic cells was expressed as a percentage.

[12] = target: SHP2; set-up: method as in earlier work; settings: cell-free assay; cited from earlier work
[13] = target: PTP1B; set-up: method as in earlier work; settings: cell-free assay; cited from earlier work
[14] = test system: murine leukemia P388 cells; set-up: method as in PMID 21628915; settings: read-out: IC50, P388 cell viability; cited from earlier work
[15] = test system: Ceratobasidium cornigerum; set-up: method as in PMID 32605151; settings: cited from earlier work
[16] = test system: Edwardsiella tarda; set-up: method as in PMID 32605151; settings: cited from earlier work
[17] = test system: human histiocytic lymphoma U937 cell line; set-up: method as in PMID 27936301; settings: cited from earlier work
[18] = Homo sapiens, MCF7, 24 h, 24 h incubation, mean ± SEM, read-out: IC50, MCF-7
[19] = 24 h incubation, mean ± SEM, read-out: IC50, MCF-7

Compound: CC(O)C(O)C=CC=CC(=O)OC1C=C(CO)C(O)(CO)C2(C)CCCC(C)(C)C12 (centres unmarked) [Compound 1, asperflavinoid A]
- IC50 ([1]; Rattus norvegicus, C6, 24 h): 102 ± 1.7 µM
- IC50 [2]: 63.2 µM
- IC50 ([3]; Homo sapiens, Raji, 24 h): > 100 µM
- IC50 ([4]; Rattus norvegicus, H9c2, 24 h): 84.2 ± 3.3 µM
- IC50 [5]: 84.4 µM
- IC50 ([6]; Homo sapiens, PC-3, 24 h): 85.3 ± 2.9 µM
- IC50 [7, 18]: 59 ± 4.4 µM

Compound: CC(O)C(O)C=CC=CC(=O)OC1C=C(CO)C(O)(CO)C2(C)CCCC(C)(C)C12 (centres unmarked) [Compound 2, asperflavinoid B]
- IC50 [1]: > 100 µM
- IC50 [3]: > 100 µM
- IC50 [4]: 74.4 ± 4.4 µM
- IC50 [6]: 75.2 ± 3.8 µM
- IC50 [7, 19]: 54.1 ± 2.4 µM

Compound: CC1(C)CCC[C@@]2(C)[C@H]1[C@H](OC(=O)/C=C/C=C/C=O)C=C1CO[C@@H](O)[C@@]12O [Compound 3, asperflavinoid C]
- percentage of cells exhibiting caspase activity (living and 7-AAD-labeled) [8]: 12.3%
- IC50 ([1]; Rattus norvegicus, C6, 24 h): 56 ± 1.2 µM
- subG0 cells ([9]; control 5.4%): 34.6%
- decrease in the percentage of cells in the S phase ([9]; relative to control): 54.5%
- increase of the percentage of cells in the G2/M phase ([9]; relative to control): 25.2%
- reduction of the percentage of cells in the G0/G1 phase ([9]; relative to control): 30.9%
- increase of the subG0 population of cells ([9]; versus control): 6.4 times
- IC50 ([3]; Homo sapiens, Raji, 24 h): 82.3 ± 2.9 µM
- IC50 ([10]; range over both compounds and three cell lines): 54.3 to 88.1 µM
- IC50 ([4]; Rattus norvegicus, H9c2, 24 h): 55.6 ± 2.6 µM
- amount of apoptotic cells (early and late) ([11]; control 1.7%): 15.0%
- amount of living cells ([11]; control 98.6%): 84.9%
- IC50, SHP2 enzyme activity [12]: 3.0 µg/mL (≈ 7.97 µM)
- IC50 ([6]; Homo sapiens, PC-3, 24 h): 50.8 ± 1.6 µM
- IC50, PTP1B enzyme activity [13]: 2.8 µg/mL (≈ 7.44 µM)
- decrease in MCF-7 cell viability ([7]; 10 µM, 48 h): ~50%
- IC50 [7, 18]: 33.8 ± 2.2 µM
- IC50 ([7]; Homo sapiens, MCF7, 48 h, 48 h incubation, concentrations up to 10 µM, read-out: IC50, MCF-7 cell viability, prolonged incubation): 10 µM

Compound: CC(O)C(O)C=CC=CC(=O)OC1C=C2COC(O)C2(O)C2(C)CCCC(C)(C)C12 (centres unmarked) [Compound 4, asperflavinoid D]
- IC50 ([1]; Rattus norvegicus, C6, 24 h): > 100 µM
- IC50 ([3]; Homo sapiens, Raji, 24 h): 85.7 ± 6 µM
- IC50 ([4]; Rattus norvegicus, H9c2, 24 h): 59.3 ± 1.7 µM
- IC50 ([6]; Homo sapiens, PC-3, 24 h): 57.4 ± 2.4 µM
- IC50 [7, 18]: 75 ± 6.2 µM

Compound: CC(O)C(O)C=CC=CC(=O)OC1C=C2COC(O)C2(O)C2(C)CCCC(C)(C)C12 (centres unmarked) [Compound 5, asperflavinoid E]
- IC50 [1]: > 100 µM
- IC50 [3]: 94.4 ± 2.3 µM
- IC50 [4]: 63.9 ± 1.6 µM
- IC50 [6]: 59.1 ± 0.8 µM
- IC50 [7, 19]: 80.6 ± 3.5 µM

Compound: CC1(C)CCC[C@@]2(C)[C@H]1[C@H](O)C=C1COC(=O)[C@@]12O [Compound 8, strobilactone A]
- IC50 ([1]; Rattus norvegicus, C6, 24 h): > 100 µM
- IC50 ([3]; Homo sapiens, Raji, 24 h): > 100 µM
- influence on the viability of the tested cells ([10]; up to a concentration of 100 µM): did not influence the viability
- IC50 ([4]; Rattus norvegicus, H9c2, 24 h): > 100 µM
- IC50 ([6]; Homo sapiens, PC-3, 24 h): > 100 µM
- IC50 [7, 18]: > 100 µM

Compound: CC(O)C(=O)/C=C/C=C/C(=O)O[C@@H]1C=C2COC(=O)[C@]2(O)[C@@]2(C)CCCC(C)(C)[C@H]12 (some centres unmarked) [Compound 10, (6-strobilactone A) ester of (E,E)-6-carbonyl-7-hydroxy-2,4-octadienoic acid]
- IC50 ([1]; Rattus norvegicus, C6, 24 h): > 100 µM
- IC50 ([3]; Homo sapiens, Raji, 24 h): 95.3 ± 0.8 µM
- IC50 ([4]; Rattus norvegicus, H9c2, 24 h): 61.9 ± 0.5 µM
- IC50 ([6]; Homo sapiens, PC-3, 24 h): 57.8 ± 1.1 µM
- IC50 [14]: 8.7 µM
- IC50 [7, 18]: 55.1 ± 1.4 µM

Compound: CC(O)C(O)/C=C/C=C/C(=O)O[C@@H]1C=C2COC(=O)[C@]2(O)[C@@]2(C)CCCC(C)(C)[C@H]12 (some centres unmarked) [Compound 11, (6-strobilactone A) esters of (E,E)-6,7-dihydroxy-2,4-octadienoic acid]
- IC50 ([1]; Rattus norvegicus, C6, 24 h): > 100 µM
- IC50 ([3]; Homo sapiens, Raji, 24 h): 96.9 ± 1.6 µM
- IC50 ([4]; Rattus norvegicus, H9c2, 24 h): > 100 µM
- IC50 ([6]; Homo sapiens, PC-3, 24 h): > 100 µM
- IC50 [7, 18]: 83.5 ± 1.7 µM

Compound: CC(O)C(O)/C=C/C=C/C(=O)O[C@@H]1C=C2COC(=O)[C@]2(O)[C@@]2(C)CCCC(C)(C)[C@H]12 (some centres unmarked) [Compound 12, (6-strobilactone A) esters of (E,E)-6,7-dihydroxy-2,4-octadienoic acid]
- IC50 [1]: > 100 µM
- IC50 [3]: 97.5 ± 0.9 µM
- IC50 [4]: > 100 µM
- IC50 [6]: > 100 µM
- IC50 [7, 19]: 81.7 ± 0.9 µM

Compound: C=C(C)[C@H]1[C@H](OC(C)=O)C[C@H](C)[C@@]12CC=C(C)[C@@H](OC(=O)CCCCCCCC=CCC=CCCCCC)C2 [chermebilaene A]
- MIC, Ceratobasidium cornigerum [15]: 0.5 µg/mL (≈ 0.925 µM)
- MIC, Edwardsiella tarda [16]: 0.25 µg/mL (≈ 0.462 µM)

Compound: aluminumneohydroxyaspergillin
- IC50 [17]: 4.2 µM
